# In patent publication US10632147B2, “Methods and compositions for treating inflammatory disorders” (priority 2007, dated 2020):
# Legend:
# [1] = system: Enterococcus faecium (VRE) ATCC #51559; test: Microbial Time Kill Assay; format: cell-based; settings: 150 ppm AFC, 15 second contact time
# [2] = system: Escherichia coli ATCC #8739; test: Microbial Time Kill Assay; format: cell-based; settings: 150 ppm AFC, 15 second contact time
# [3] = system: Bacteroides fragilis ATCC #25285; test: Microbial Time Kill Assay; format: cell-based; settings: 150 ppm AFC, 15 second contact time
# [4] = system: Candida albicans ATCC #10231; test: Microbial Time Kill Assay; format: cell-based; settings: 150 ppm AFC, 15 second contact time
# Method: Fungicidal activity tests were performed using hypochlorous acid (140-150 ppm) against Candida albicans ATCC 10231 and Aspergillus niger ATCC 16404. Stock culture of Candida albicans ATCC 10231 and Aspergillus niger ATCC 16404 were grown and maintained on Malt Extract Agar at 30° C. […] All samples were serially diluted, plated out on Tryptic Soy Agar, incubated at 37° C. for 3 days and colonies forming units counted.
# [5] = system: Haemophilus influenza ATCC #8149; test: Microbial Time Kill Assay; format: cell-based; settings: 150 ppm AFC, 15 second contact time
# [6] = system: Klebsiella oxytoca ATCC #12833; test: Microbial Time Kill Assay; format: cell-based; settings: 150 ppm AFC, 15 second contact time
# [7] = system: Klebsiella pneumonia ATCC #4352; test: Microbial Time Kill Assay; format: cell-based; settings: 150 ppm AFC, 15 second contact time
# [8] = system: Proteus mirabilis ATCC #43071; test: Microbial Time Kill Assay; format: cell-based; settings: 150 ppm AFC, 15 second contact time
# [9] = system: Staphylococcus saprophyticus ATCC #15305; test: Microbial Time Kill Assay; format: cell-based; settings: 150 ppm AFC, 15 second contact time
# [10] = system: Clostridium difficile (spores); test: Endospore Time Kill Assay; format: cell-based; settings: for Log Reduction / Vashe Log10 / Vashe Survivors / % Reduction (% Kill): ≤150 ppm AFC
# [11] = system: Pseudomonas aeruginosa ATCC 15442; test: Bactericidal suspension test; format: cell-based
# [12] = system: Mycobacterium avium ATCC 15769; test: Mycobactericidal suspension test; format: cell-based
# Method: (§1) Broth cultures of either M. terrae (ATCC 15755) and M. avium (ATCC 15769) were grown for up to 35 days at 35° C. […] The plates were incubated for 4-5 weeks at 35° C. and colonies counted.
# [13] = system: Mycobacterium terrae ATCC 15755; test: Mycobactericidal suspension test; format: cell-based
# Method: as §1
# Adenovirus, type V = test: Virucidal suspension test; format: cell-based
# human norovirus [14] = test: Norovirus suspension test; format: cell-based; settings: 20-200 mg/L, within a contact time of 20 seconds
# coliphage MS2 = test: MS2 coliphage suspension test; format: cell-based; settings: 20-200 mg/L, within a contact time of 20 seconds
# [15] = system: wound pathogens including S. aureus, P. aeruginosa, E. coli, Enterococcus spp., and Candida spp.; test: In vitro antimicrobial studies against wound pathogens; format: cell-based; settings: within a 15 seconds contact time, even at ≤150 ppm
# [16] = Ocular irritation study (Draize); format: in vivo, New Zealand white rabbits; settings: 0.1 ml, 689.5 ppm AFC, conjunctival sac; Draize scoring days 1, 2 and 3 post dose
# Method: An eye irritation study was conducted on six healthy New Zealand white rabbits, free from evidence of ocular irritation and corneal abnormalities. The test article (0.1 ml hypochlorous acid, 689.5 ppm AFC) was placed into the conjunctival sac of one eye of each rabbit. The contralateral eye served as a control. The eyes were examined and scored by the Draize technique for any evidence of irritation or abnormalities of the cornea, on days 1, 2, and 3 post dose. The primary eye irritation score of each rabbit, each day was calculated. All eyes appeared normal at each observation period and there were no abnormal physical signs noted.
# [17] = Dermal irritation study (Draize); format: in vivo, New Zealand white rabbits; settings: 0.5 ml, 689.5 ppm AFC, intact and abraded site; Draize at 24 and 72 hours
# Method: A skin irritation study was conducted on six healthy New Zealand white rabbits. The test article (0.5 ml hypochlorous acid, 689.5 ppm AFC) was applied to one intact and one abraded site on the clipped back of each rabbit. Skin reactions were evaluated by the Draize technique at 24 and 72 hours after dosing and the primary irritation index was calculated. There was no erythema or edema noted at any time period and there were no abnormal physical signs noted during the observation period.
# [18] = Delayed dermal sensitization in guinea pig maximization test; format: in vivo; settings: intradermal injection and occlusive patch; scored 24 and 48 hours after patch removal; solution 690 ppm AFC, hydrogel 500 ppm AFC
# Acute oral toxicity = settings: 500 ppm AFC, single dose of 5 g/kg orally, observed up to 14 days
# human norovirus [19] = test: Norovirus carrier test; settings: ceramic tiles and stainless steels, 1 min contact time, 20-200 ppm, RNA testing
# MS2 = MS2 coliphage virus carrier test; settings: ceramic tiles and stainless steels, 1 min contact time, 20-200 ppm, infectivity
# [20] = hypochlorous acid 40-180 ppm, suspension test
smiles,measurement,setting,value
OCl [hypochlorous acid],% Reduction (% Kill),[1],>99.999%
same,HOCl Solution Log10,[1],≤1
same,HOCl Solution Survivors,[1],<10
same,Log Reduction,[1],≥5.20
same,% Reduction (% Kill),[2],>99.999%
same,HOCl Solution Log10,[2],≤1
same,HOCl Solution Survivors,[2],<10
same,Log Reduction,[2],≥5.28
same,% Reduction (% Kill),[3],>99.999%
same,HOCl Solution Log10,[3],≤1
same,HOCl Solution Survivors,[3],<10
same,Log Reduction,[3],≥5.66
same,% Reduction (% Kill),[4],>99.999%
same,HOCl Solution Log10,[4],≤1
same,HOCl Solution Survivors,[4],<10
same,Log Reduction,[4],≥5.63
same,% Reduction (% Kill),[5],>99.999%
same,HOCl Solution Log10,[5],≤1
same,HOCl Solution Survivors,[5],<10
same,Log Reduction,[5],≥5.59
same,% Reduction (% Kill),[6],>99.999%
same,HOCl Solution Log10,[6],≤1
same,HOCl Solution Survivors,[6],<10
same,Log Reduction,[6],≥5.18
same,% Reduction (% Kill),[7],>99.999%
same,HOCl Solution Log10,[7],≤1
same,HOCl Solution Survivors,[7],<10
same,Log Reduction,[7],≥5.70
same,% Reduction (% Kill),[8],>99.999%
same,HOCl Solution Log10,[8],≤1
same,HOCl Solution Survivors,[8],<10
same,Log Reduction,[8],≥5.40
same,% Reduction (% Kill),[9],>99.999%
same,HOCl Solution Log10,[9],≤1
same,HOCl Solution Survivors,[9],<10
same,Log Reduction,[9],≥5.68
same,contact time after which pass was achieved,[10]; [20],5 min
same,Log Reduction,[10]; contact time 15 seconds,3.15
same,Vashe Log10,[10]; contact time 15 seconds,2.52
same,Vashe Survivors,[10]; contact time 15 seconds,330
same,% Reduction (% Kill),"[10]; contact time 15 seconds, listed as HOCl solution",99.93%
same,% Reduction (% Kill),"[10]; contact time 15 seconds, listed as hypochlorous acid solution",> 99.9%
same,% Reduction (% Kill),[10]; contact time 5 minutes,>99.999%
same,Log Reduction,[10]; contact time 5 minutes,≥5.69
same,Vashe Log10,[10]; contact time 5 minutes,≤1
same,Vashe Survivors,[10]; contact time 5 minutes,<10
same,contact time after which pass was achieved,[11]; [20],15 s
same,Test Result (Log reduction),"[11]; in 5 min., 20° C. ± 1° C.",>10^5 in 5 min.
same,contact time after which pass was achieved,[12]; [20],15 s
same,Test Result (Log reduction),"[12]; in 5 min., 20° C. ± 1° C.",>10^5 in 5 min.
same,contact time after which pass was achieved,[13]; [20],15 s
same,Test Result (Log reduction),"[13]; in 5 min., 20° C. ± 1° C.",>10^5 in 5 min.
same,Test Result (Log reduction),"Adenovirus, type V",>10^4 in 15 min.
same,contact time after which pass was achieved,"Adenovirus, type V",15 min
same,reduction of human norovirus,human norovirus [14],3 log10
same,reduction of MS2,coliphage MS2,3 log10
same,kill,[15],> 5 log
same,ocular irritation,[16],no ocular irritation
same,dermal irritation,[17],no dermal irritation
same,delayed dermal contact sensitization,[18],no evidence of causing a delayed dermal contact sensitization
same,mortality or evidence of toxicity,Acute oral toxicity,no mortality or evidence of toxicity
same,inactivation of human norovirus,human norovirus [19],> 3 log10
same,inactivation of MS2,MS2,> 3 log10
